The compounds below were run against farnesyl protein transferase (assay: In vitro enzyme assay: inhibition of farnesyl protein transferase (FPT), [3H]farnesyl transfer to Ras-CVLS). Conditions: not given.
Assay type: biochemical, rat (brain); human (expressed in E. coli)
Text: 1. In vitro enzyme assays: Inhibition of famesyl protein transferase and geranylgeranyl protein transferase.
Farnesyl protein transferase (FPT) was partially purified from rat brain by ammonium sulfate fractionation followed by Q-Sepharose (Pharmacia, Inc.) anion exchange chromatography essentially as described by Yokoyama et al (Yokoyama, K., et al., (1991), A protein geranylgeranyltransferase from bovine brain: Implications for protein prenylation specificity, Proc. Natl. Acad. Sci USA 88: 5302-5306, the disclosure of which is incorporated herein by reference thereto). Human famesyl protein transferase was also expressed in E. coli, using cDNA clones encoding both the a and b subunits. The methods used were similar to those published (Omer, C. et al., (1993), Characterization of recombinant human famesyl protein transferase: Cloning, expression, farnesyl diphosphate binding, and functional homology with yeast prenyl-protein transferases, Biochemistry 32:5167-5176). Human famesyl protein transferase was partially-purified from the soluble protein fraction of E. coli as described above. […] Two forms of val^12 -Ha-Ras protein were prepared as substrates for these enzymes, differing in their carboxy terminal sequence. One form terminated in cysteine-valine-leucine-serine (Ras-CVLS) the other in cystein-valine-leucine-leucine (Ras-CVLL). Ras-CVLS is a substrate for the famesyl protein transferase while Ras-CVLL is a substrate for geranylgeranyl protein transferase I. The cDNAs encoding these proteins were constructed so that the proteins contain an amino-terminal extension of 6 histidine residues. Both proteins were expressed in Escherichia coli and purified using metal chelate affinity chromatography. The radiolabelled isoprenyl pyrophosphate substrates, [^3 H]farnesyl pyrophosphate and [^3 H]geranylgeranyl pyrophosphate, were purchased from DuPon/New England Nuclear.
Several methods for measuring farnesyl protein transferase activity have been described (Reiss et al 1990, Cell 62: 81; Schaber et al 1990, J. Biol. Chem. 265: 14701; Manne et al 1990, PNAS 87: 7541; and Barbacid & Manne 1993, U.S. Pat. No. 5,185,248). […] The reaction was allowed to proceed for 30 minutes at room temperature and then stopped with 0.5 ml of 4% sodium dodecyl sulfate (SDS) followed by 0.5 ml of cold 30% TCA. Samples were allowed to sit on ice for 45 minutes and precipitated Ras protein was then collected on GF/C filter paper mats using a Brandel cell harvester. Filter mats were washed once with 6% TCA, 2% SDS and radioactivity was measured in a Wallac 1204 Betaplate BS liquid scintillation counter. Percent inhibition was calculated relative to the DMSO vehicle control.
For `CN(C)CCCC(=O)N1CCC(C2c3ncc(Br)cc3CCc3cc(Cl)cc(Cl)c32)CC1` (single isomer, unassigned) [Example 6], the IC50 was 0.0065 µM. `O=C(O)CCCCCC(=O)N1CCC([C@H]2c3ncc(Br)cc3CCc3cc(Cl)cc(Br)c32)CC1` [Example 58, (+)-SODIUM 4-(3,10-DIBROMO-8-CHLORO-6,11-DIHYDRO-5H-BENZO[5,6]CYCLO-HEPTA[1,2-b]PYRIDIN-11 (R)-YL)-OMEGA-OXO-1-PIPERIDININE HEPTANOATE] showed an IC50 of 0.0091 µM. `NC(=O)CCCCCC(=O)N1CCC([C@H]2c3ncc(Br)cc3CCc3cc(Cl)cc(Br)c32)CC1` [Example 59, (+)-4-(3,10-DIBROMO-8-CHLORO-6,11-DIHYDRO-5H-BENZO[5,6]CYCLO-HEPTA[1,2-b]PYRIDIN-11(R)-YL)-OMEGA-OXO-1-PIPERIDININE HEPTANAMIDE] showed an IC50 of 0.0033 µM. For `O=C(CCCC(=O)N1CCC(C2c3ncc(Br)cc3CCc3cc(Cl)cc(Cl)c32)CC1)Nc1cccnc1` (stereo not shown) [Example 17], the IC50 was roughly 0.1 µM. With `NC(=O)CCCCC(=O)N1CCC([C@H]2c3ncc(Br)cc3CCc3cc(Cl)cc(Br)c32)CC1` [Example 56, (+)-4-(3,10-DIBROMO-8-CHLORO-6,11-DIHYDRO-5H-BENZO[5,6]CYCLO-HEPTA[1,2-b]PYRIDIN-11(R)-YL)-EPSILON-OXO-1-PIPERIDININE HEXANAMIDE] the IC50 was 0.007 µM. `NC(=O)CC(=O)N1CCC([C@H]2c3ncc(Br)cc3CCc3cc(Cl)cc(Br)c32)CC1` [Example 47, 4-(3,10-DIBROMO-8-CHLORO-6,11-DIHYDRO-5H-BENZO[5,6]CYCLO-HEPTA[1,2-b]PYRIDIN-11(R)-YL)-BETA-OXO -1-PIPERIDININE PROPANAMIDE] showed an IC50 of 0.068 µM. Compound `O=C(O)CCCC(=O)N1CCC([C@H]2c3ncc(Br)cc3CCc3cc(Cl)cc(Br)c32)CC1` [Example 52, (+)-SODIUM 4-(3,10-DIBROMO-8-CHLORO-6,11-DIHYDRO-5H-BENZO[5,6]CYCLO-HEPTA[1,2-b]PYRIDIN-11(R)-YL)-DELTA-OXO-1-PIPERIDININE PENTANOATE] has an IC50 of 0.044 µM. Work on `CCOC(=O)CC(=O)N1CCC([C@H]2c3ncc(Br)cc3CCc3cc(Cl)cc(Br)c32)CC1` [Example 45, (+)-ETHYL 4-(3,10-DIBROMO-8-CHLORO-6,11-DIHYDRO-5H-BENZO[5,6]CYCLO-HEPTA[1,2-b]PYRIDIN-11(R)-YL)-BETA-OXO-1-PIPERIDININE PROPANOATE] yielded an IC50 of 0.028 µM. `NC(=O)N1CCC(C2c3ncc(Br)cc3CCc3cc(Cl)cc(Cl)c32)CC1` (single isomer, unassigned; (+)) [Example 1, (+)-4-(3-BROMO-8,10-DICHLORO-6,11-DIHYDRO-5H-BENZO[5,6]-CYCLOHEPTA[1 ,2-b]PYRIDIN-11-YL)-1-PIPERIDINE CARBOXAMIDE] was tested, and the IC50 was 0.39 µM. `O=C(CCCCCN1C(=O)C=CC1=O)N1CCC(C2c3ncc(Br)cc3CCc3cc(Cl)cc(Cl)c32)CC1` (single isomer, unassigned) [Example 23] was tested, and the IC50 was 0.62 µM. Compound `COC(=O)CCCCCC(=O)N1CCC([C@H]2c3ncc(Br)cc3CCc3cc(Cl)cc(Br)c32)CC1` [Example 57, (+)-METHYL 4-(3,10-DIBROMO-8-CHLORO-6,11-DIHYDRO-5H-BENZO[5,6]CYCLO-HEPTA[1,2-b]PYRIDIN-11(R)-YL)-OMEGA-OXO-1-PIPERIDININE HEPTANOATE] has an IC50 of 0.011 µM. In the case of `CN(C)CCC(=O)N1CCC(C2c3ncc(Br)cc3CCc3cc(Cl)cc(Cl)c32)CC1` (single isomer, unassigned) [Example 5], the IC50 is reported as 0.056 µM. For `O=C(CCN1C(=O)CCC1=O)N1CCC(C2c3ncc(Br)cc3CCc3cc(Cl)cc(Cl)c32)CC1` (single isomer, unassigned) [Example 11], the IC50 was 0.076 µM. Compound `CN(C)CCCCC(=O)N1CCC(C2c3ncc(Br)cc3CCc3cc(Cl)cc(Cl)c32)CC1` (single isomer, unassigned) [Example 7] has an IC50 of 0.022 µM.

Same assay, conditions: @ 0.06 μg/μL
`O=C(CCCC(=O)N1CCC(C2c3ncc(Br)cc3CCc3cc(Cl)cc(Cl)c32)CC1)NCc1ccccc1` (single isomer, unassigned) [Example 21] showed an FPT inhibition of 35%. For `O=C(NCCCC(=O)N1CCC(C2c3ncc(Br)cc3CCc3cc(Cl)cc(Cl)c32)CC1)c1ccncc1` (single isomer, unassigned) [Example 24], the FPT inhibition was 20%.

The compounds below were run on Ras processing (val12-Ha-Ras-CVLS) in COS monkey kidney cells (assay: Cell-based assay: inhibition of Ras processing in COS cells (transient expression of val12-Ha-Ras-CVLS)). Conditions: Primates.
Protocol: Following electroporation, cells were plated into 6-well tissue culture dishes containing 1.5 ml of Dulbecco's-modified Eagle's media (GIBCO, Inc.) supplemented with 10% fetal calf serum and the appropriate farnesyl protein transferase inhibitors. After 24 hours, media was removed and fresh media containing the appropriate drugs was re-added.
48 hours after electroporation cells were examined under the microscope to monitor disordered cell growth induced by transforming Ras. Cells expressing transforming Ras become more rounded and refractile and overgrow the monolayer, reminiscent of the transformed phenotype. Cells were then photographed, washed twice with 1 ml of cold phosphate-buffered saline (PBS) and removed from the dish by scraping with a rubber policeman into 1 ml of a buffer containing 25 mM Tris, pH 8.0; 1 mM ethylenediamine tetraacetic acid; 1 mM phenylmethylsulfonyl fluoride; […]; and 0.1 mM pepstatin. Cells were lysed by homogenization and cell debris was removed by centrifugation at 2000×g for 10 min.
Cellular protein was precipitated by addition of ice-cold trichloroacetic acid and redissolved in […] of SDS-electrophoresis sample buffer. […] Proteins resolved on the gels were electroblotted onto nitrocellulose membranes for immunodetection.
After washing, membranes were incubated for one hour at room temperature with a 1:5000 dilution of secondary antibody, rabbit anti-rat IgG conjugated to horseradish peroxidase, in PBS containing 1% fetal calf serum. The presence of processed and unprocessed Ras-CVLS or Ras-CVLL was detected using a colorimetric peroxidase reagent (4-chloro-1-naphthol) as described by the manufacturer (Bio-Rad).
In the case of `CN(C)CCCC(=O)N1CCC(C2c3ncc(Br)cc3CCc3cc(Cl)cc(Cl)c32)CC1` (single isomer, unassigned) [Example 6], the IC50 is reported as 0.035 µM. `O=C(O)CCCCCC(=O)N1CCC([C@H]2c3ncc(Br)cc3CCc3cc(Cl)cc(Br)c32)CC1` [Example 58, (+)-SODIUM 4-(3,10-DIBROMO-8-CHLORO-6,11-DIHYDRO-5H-BENZO[5,6]CYCLO-HEPTA[1,2-b]PYRIDIN-11 (R)-YL)-OMEGA-OXO-1-PIPERIDININE HEPTANOATE] gave an IC50 of 0.3 µM. `NC(=O)CCCCCC(=O)N1CCC([C@H]2c3ncc(Br)cc3CCc3cc(Cl)cc(Br)c32)CC1` [Example 59, (+)-4-(3,10-DIBROMO-8-CHLORO-6,11-DIHYDRO-5H-BENZO[5,6]CYCLO-HEPTA[1,2-b]PYRIDIN-11(R)-YL)-OMEGA-OXO-1-PIPERIDININE HEPTANAMIDE] gave an IC50 of 0.015 µM.

From US6277854A, “Tricyclic antitumor farnesyl protein transferase inhibitors” (Schering Corporation, priority 1999, dated 2001)
